Consider two compounds from article PMC10108353, “Design and Pharmacological Characterization of α4β1 Integrin Cyclopeptide Agonists: Computational Investigation of Ligand Determinants for Agonism versus Antagonism” (Journal of Medicinal Chemistry, 2023).

Each structure is given as a SMILES string. Where only a bound is given, the exact number is not on record here.

One assay concerns the target T1, α4β7 integrin (Homo sapiens, UniProt P13612+P26010).
T1 construct: RPMI8866 cells expressing α4β7 integrin to the ligand MAdCAM-1; endogenous in cells; host or cells: RPMI8866
T1 sequence (P13612 34-1032): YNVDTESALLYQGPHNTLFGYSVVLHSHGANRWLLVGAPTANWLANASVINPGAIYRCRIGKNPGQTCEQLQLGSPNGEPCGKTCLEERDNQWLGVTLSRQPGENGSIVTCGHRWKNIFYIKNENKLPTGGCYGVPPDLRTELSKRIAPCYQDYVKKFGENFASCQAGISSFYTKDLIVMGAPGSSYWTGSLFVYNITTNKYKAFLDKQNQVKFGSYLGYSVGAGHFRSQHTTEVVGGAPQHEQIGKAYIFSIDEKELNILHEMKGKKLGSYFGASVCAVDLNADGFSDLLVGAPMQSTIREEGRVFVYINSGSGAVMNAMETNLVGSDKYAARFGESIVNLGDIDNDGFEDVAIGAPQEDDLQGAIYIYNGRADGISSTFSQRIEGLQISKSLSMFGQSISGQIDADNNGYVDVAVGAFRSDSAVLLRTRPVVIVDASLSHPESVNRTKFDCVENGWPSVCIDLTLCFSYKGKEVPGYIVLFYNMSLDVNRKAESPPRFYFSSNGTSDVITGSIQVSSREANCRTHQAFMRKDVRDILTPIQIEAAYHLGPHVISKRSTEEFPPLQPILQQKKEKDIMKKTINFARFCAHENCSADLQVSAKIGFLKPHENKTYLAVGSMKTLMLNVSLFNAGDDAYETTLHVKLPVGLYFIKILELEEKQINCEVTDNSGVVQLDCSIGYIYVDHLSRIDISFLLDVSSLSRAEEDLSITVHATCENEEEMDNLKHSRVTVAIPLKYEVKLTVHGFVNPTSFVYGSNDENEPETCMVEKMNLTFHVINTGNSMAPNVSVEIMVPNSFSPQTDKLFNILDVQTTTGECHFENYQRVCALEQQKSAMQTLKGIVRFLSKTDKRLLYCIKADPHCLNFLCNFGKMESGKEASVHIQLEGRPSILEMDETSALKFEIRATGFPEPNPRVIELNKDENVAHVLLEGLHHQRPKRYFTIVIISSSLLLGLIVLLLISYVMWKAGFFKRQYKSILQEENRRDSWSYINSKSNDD
T1 sequence (P26010 20-798): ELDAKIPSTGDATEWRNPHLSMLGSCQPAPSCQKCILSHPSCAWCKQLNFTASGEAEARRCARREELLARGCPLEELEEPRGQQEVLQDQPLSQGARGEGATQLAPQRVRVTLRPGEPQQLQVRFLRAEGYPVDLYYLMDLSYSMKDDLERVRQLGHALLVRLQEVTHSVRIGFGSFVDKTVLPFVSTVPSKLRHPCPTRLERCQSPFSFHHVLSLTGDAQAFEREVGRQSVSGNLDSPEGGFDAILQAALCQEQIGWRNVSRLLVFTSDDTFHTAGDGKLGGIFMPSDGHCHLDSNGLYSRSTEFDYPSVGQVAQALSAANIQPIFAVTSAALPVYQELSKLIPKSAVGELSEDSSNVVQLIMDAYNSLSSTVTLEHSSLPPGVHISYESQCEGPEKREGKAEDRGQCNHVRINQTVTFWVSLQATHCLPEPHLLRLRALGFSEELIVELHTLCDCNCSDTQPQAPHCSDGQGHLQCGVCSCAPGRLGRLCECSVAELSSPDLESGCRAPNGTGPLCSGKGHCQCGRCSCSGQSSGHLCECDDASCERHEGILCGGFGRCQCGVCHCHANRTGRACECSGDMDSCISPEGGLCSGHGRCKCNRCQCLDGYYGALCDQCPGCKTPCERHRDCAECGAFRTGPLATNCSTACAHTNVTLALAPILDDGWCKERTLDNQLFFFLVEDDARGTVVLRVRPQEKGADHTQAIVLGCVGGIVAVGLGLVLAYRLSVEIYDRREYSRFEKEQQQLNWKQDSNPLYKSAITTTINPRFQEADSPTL
Briefly: cell-based. In kind it is cell-based. As to conditions: for IC50: reduction of cell adhesion, >5000 = inactive compounds (IC50/EC50), read-out: IC50 for antagonists, MAdCAM-1/RPMI8866 α4β7. From the text:
mediated Jurkat cell adhesion to FN.

In assay [1] the target is T2, α4β1 integrin (Homo sapiens, UniProt P05556+P13612). Briefly: Competitive solid-phase binding assay, purified α4β1 / VCAM-1. Particulars: read-out: Binding affinity IC50, α4β1/VCAM-1. Details: purchased R&D Systems. How it is done: For the evaluation of binding affinity to purified α4β1, αMβ2, and α4β7 integrins, competitive solid-phase ligand binding assays were performed as follows. […] Afterward, each well was washed and blocked for 1 h at RT. Purified integrins (α4β1: 0.5 μg/mL; α4β7: 0.5 μg/mL; αMβ2: 0.5 μg/mL; R&D Systems) were preincubated with serial dilutions of new compounds (10^–4 – 10^–10 M) for 30 min at RT and then plated into coated wells for 1 h at RT. After two washes, primary antibody (for α4β1 and α4β7: rabbit anti-α4, Abcam, 1:100 dilution; for αMβ2: rabbit anti-αM, Abcam, 1:100 dilution) was added and incubated for 1 h at RT. The plate was washed twice and then was incubated with anti-rabbit AlexaFluor488 secondary antibody (1:400 dilution, ThermoFischer Scientific) for 1 h at RT. After washing three times, fluorescence was measured as described in the previous section.
Target sequence in this assay (P05556 21-728 limits assumed, one chain of several): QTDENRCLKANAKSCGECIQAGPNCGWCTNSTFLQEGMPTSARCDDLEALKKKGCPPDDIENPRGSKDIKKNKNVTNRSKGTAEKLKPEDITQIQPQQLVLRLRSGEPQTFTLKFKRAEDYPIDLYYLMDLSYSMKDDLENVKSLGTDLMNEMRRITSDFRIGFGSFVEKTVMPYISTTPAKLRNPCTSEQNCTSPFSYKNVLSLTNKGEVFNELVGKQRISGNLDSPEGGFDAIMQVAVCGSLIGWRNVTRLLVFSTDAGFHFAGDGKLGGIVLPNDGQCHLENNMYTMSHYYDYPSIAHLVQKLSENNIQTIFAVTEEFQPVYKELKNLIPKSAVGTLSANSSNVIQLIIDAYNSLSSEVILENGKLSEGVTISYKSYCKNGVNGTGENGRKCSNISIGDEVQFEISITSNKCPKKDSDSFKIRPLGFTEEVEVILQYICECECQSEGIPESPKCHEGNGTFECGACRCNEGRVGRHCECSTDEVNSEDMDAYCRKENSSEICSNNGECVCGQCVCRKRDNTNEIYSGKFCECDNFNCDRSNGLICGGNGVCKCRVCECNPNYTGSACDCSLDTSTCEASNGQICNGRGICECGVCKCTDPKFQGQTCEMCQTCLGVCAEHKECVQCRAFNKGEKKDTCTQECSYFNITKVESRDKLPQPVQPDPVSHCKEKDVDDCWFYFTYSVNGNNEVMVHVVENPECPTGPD

The target of assay [2] is T2, α4β1 integrin. Description: Jurkat E6.1 cell adhesion to VCAM-1.
Target sequence in this assay (P05556 21-798, one chain of several): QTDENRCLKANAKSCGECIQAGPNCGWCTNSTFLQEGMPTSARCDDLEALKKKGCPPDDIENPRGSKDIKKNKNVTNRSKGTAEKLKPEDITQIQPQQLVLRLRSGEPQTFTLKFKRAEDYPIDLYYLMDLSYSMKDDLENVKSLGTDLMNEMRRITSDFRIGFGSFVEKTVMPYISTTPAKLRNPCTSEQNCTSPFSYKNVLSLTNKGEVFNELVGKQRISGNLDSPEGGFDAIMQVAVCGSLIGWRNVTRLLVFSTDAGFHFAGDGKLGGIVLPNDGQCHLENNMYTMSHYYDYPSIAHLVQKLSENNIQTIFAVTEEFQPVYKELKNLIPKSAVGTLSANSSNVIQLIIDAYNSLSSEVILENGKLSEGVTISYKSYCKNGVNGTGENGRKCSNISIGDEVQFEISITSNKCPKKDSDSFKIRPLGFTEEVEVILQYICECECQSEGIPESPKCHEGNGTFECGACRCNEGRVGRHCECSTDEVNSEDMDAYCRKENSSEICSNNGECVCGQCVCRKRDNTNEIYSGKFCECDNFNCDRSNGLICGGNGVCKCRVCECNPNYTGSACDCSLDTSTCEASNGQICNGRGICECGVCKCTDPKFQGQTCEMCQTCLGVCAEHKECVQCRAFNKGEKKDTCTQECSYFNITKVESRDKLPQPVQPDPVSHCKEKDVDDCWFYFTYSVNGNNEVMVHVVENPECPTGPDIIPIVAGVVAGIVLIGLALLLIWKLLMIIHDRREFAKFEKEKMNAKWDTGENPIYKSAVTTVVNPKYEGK
Procedure: (§1) Cells were seeded in 96-well plates coated with the specific natural human recombinant ligands (Table 1) and allowed to adhere in the presence of increasing concentrations (10^–10 to 10^–4 M) of the synthesized CPPs before the determination of the number of adherent cells (as described in Experimental Section).
For adhesion assays on Jurkat E6.1, RPMI8866, or HL60 cells, black 96-well plates were coated overnight at 4 °C with VCAM-1 or ICAM-1 or MAdCAM-1 (5 μg/mL) or Fg (10 μg/mL). The cells were counted, stained with CellTracker green CMFDA (12.5 μM, 30 min at 37 °C, Life Technologies), and after three washes, were preincubated with increasing concentrations of new CPP (10^–10 to 10^–4 M) or with the vehicle (methanol) for 30 min at 37 °C. Then cells were plated (500 000/well) on coated wells and incubated for 30 min at 37 °C. After three washes, adhered cells were lysed with 0.5% Triton X-100 in PBS (30 min at 4 °C) and fluorescence was measured (Ex485 nm/Em535 nm) in an EnSpire Multimode Plate Reader (PerkinElmer, Waltham, MA). For adhesion assays mediated by α5β1 integrin, 96-well plates were coated by passive adsorption with FN (10 μg/mL) overnight at 4 °C. K562 cells were counted and preincubated with various concentrations of the peptides or with the vehicle (methanol) for 30 min at RT. Afterward, the cells were plated (50 000 cells/well) and incubated at RT for 1 h. The wells were then washed with 1% BSA in PBS (phosphate-buffered saline) to take off nonadherent cells, and 50 μL of hexosaminidase substrate was added; after addition of 100 μL of stopping solution, the plates were read at 405 nm. In both types of adhesion assay, the number of adherent cells was determined by comparison with a standard curve made in the same plate. Experiments were carried out in quadruplicate and repeated at least three times.
Jurkat E6.1 (expressing α4β1 and αLβ2 integrin), K562 (expressing α5β1 integrin) and HL60 (expressing αMβ2 integrin) cell lines were purchased from ATCC (Rockville, MD, USA); these cells were routinely cultured in RPMI-1640 (Life Technologies) supplemented with glutamine and 10% FBS.
Cells were grown at 37 °C under 5% CO2 humidified atmosphere.
In another assay the target is α5β1 integrin (Homo sapiens, UniProt P05556+P08648). Description: K562 cell adhesion to FN.
The mark [3] stands for this setting: agonist = adhesion index >1, antagonist = adhesion index <1.

Sequence of α5β1 integrin (P08648 42-894 limits assumed): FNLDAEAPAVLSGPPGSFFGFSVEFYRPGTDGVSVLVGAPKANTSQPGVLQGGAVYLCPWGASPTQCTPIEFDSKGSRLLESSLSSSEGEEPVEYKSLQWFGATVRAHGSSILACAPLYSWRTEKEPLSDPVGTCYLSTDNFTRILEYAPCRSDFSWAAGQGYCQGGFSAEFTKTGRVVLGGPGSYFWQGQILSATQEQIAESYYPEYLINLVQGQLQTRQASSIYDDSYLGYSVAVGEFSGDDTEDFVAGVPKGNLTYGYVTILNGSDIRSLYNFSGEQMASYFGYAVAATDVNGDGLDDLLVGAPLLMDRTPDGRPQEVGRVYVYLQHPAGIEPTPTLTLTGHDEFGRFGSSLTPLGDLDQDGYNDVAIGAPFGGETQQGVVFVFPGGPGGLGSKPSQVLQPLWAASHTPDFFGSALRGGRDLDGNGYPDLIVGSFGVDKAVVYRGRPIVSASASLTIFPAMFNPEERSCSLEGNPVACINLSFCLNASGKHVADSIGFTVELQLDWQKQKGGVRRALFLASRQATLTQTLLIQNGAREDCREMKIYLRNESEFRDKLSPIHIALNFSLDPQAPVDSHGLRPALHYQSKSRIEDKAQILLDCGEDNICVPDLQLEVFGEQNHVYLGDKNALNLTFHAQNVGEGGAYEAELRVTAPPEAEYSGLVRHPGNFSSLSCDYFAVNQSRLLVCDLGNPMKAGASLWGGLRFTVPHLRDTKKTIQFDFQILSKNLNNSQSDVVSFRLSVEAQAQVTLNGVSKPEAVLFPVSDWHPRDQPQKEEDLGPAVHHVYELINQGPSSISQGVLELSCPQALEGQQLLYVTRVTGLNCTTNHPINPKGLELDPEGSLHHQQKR
Sequence of α5β1 integrin (P08648 895-1049 partner limits assumed): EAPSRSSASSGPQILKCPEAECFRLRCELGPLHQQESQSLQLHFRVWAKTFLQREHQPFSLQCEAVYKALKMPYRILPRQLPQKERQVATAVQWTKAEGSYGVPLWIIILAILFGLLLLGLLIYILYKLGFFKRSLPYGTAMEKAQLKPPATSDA
Sequence of α5β1 integrin (P05556 21-798): as the sequence (P05556 21-798, one chain of several) above
Procedure for α5β1 integrin: as §1
For adhesion assays on Jurkat E6.1, RPMI8866, or HL60 cells, black 96-well plates were coated overnight at 4 °C with VCAM-1 or ICAM-1 or MAdCAM-1 (5 μg/mL) or Fg (10 μg/mL). The cells were counted, stained with CellTracker green CMFDA (12.5 μM, 30 min at 37 °C, Life Technologies), and after three washes, were preincubated with increasing concentrations of new CPP (10^–10 to 10^–4 M) or with the vehicle (methanol) for 30 min at 37 °C. […] After three washes, adhered cells were lysed with 0.5% Triton X-100 in PBS (30 min at 4 °C) and fluorescence was measured (Ex485 nm/Em535 nm) in an EnSpire Multimode Plate Reader (PerkinElmer, Waltham, MA). […] K562 cells were counted and preincubated with various concentrations of the peptides or with the vehicle (methanol) for 30 min at RT. […] The wells were then washed with 1% BSA in PBS (phosphate-buffered saline) to take off nonadherent cells, and 50 μL of hexosaminidase substrate was added; after addition of 100 μL of stopping solution, the plates were read at 405 nm. […]

`Cc1ccccc1NC(=O)N1C(=O)CC1CC(=O)O` (stereo not drawn) [1a]: the “agonist or antagonist behaviour, MAdCAM-1/RPMI8866 α4β7” value at α4β7 integrin (setting [3]) was “inactive”. Also, the IC50 on α4β7 integrin is over 5 µM; at α4β1 integrin [1] it was 0.0101 ± 0.0049 µM. In addition, the “agonist or antagonist behaviour, VCAM-1/Jurkat E6.1 α4β1” value on α4β1 integrin [2] (setting [3]) was “agonist”. Also, on α4β1 integrin [2] (read-out: EC50 for agonists, VCAM-1/Jurkat E6.1 α4β1, increase of cell adhesion, mean ± SD), the EC50 was 0.013 ± 0.0008 µM.
Regarding `Cc1ccccc1NC(=O)N1C(=O)CC1CC(=O)NCC(=O)O` (stereo not drawn) [1b], the IC50 at α4β7 integrin and on α4β1 integrin [1] was over 5 µM each time. At α5β1 integrin (setting [3]), the “agonist or antagonist behaviour, FN/K562 α5β1” value was “agonist”. Besides, at α5β1 integrin (read-out: EC50 for agonists, FN/K562 α5β1, increase of cell adhesion, mean ± SD), the EC50 stood at 0.0097 ± 0.0005 µM.
